Measured values reported in article PMC3001897, “High-Throughput Chemical Screen Identifies a Novel Potent Modulator of Cellular Circadian Rhythms and Reveals CKIα as a Clock Regulatory Kinase” (PLoS Biology, 2010).

Legend:
[1] = biological target: T1, CDK7 (Homo sapiens, UniProt P50613); experiment: In vitro kinase assay, CDK7; assay type: biochemical
T1 construct: purchased Millipore 14-476
Procedure: (§1) The CKIδ, CKIα, CDK7, and ERK2 kinase assays were performed on 384-well plates (10 µl volume). The reaction mixture was as follows: for CKIδ, 2 ng/µl CKIδ (Millipore, 14-520), 50 µM peptide substrate RKKKAEpSVASLTSQCSYSS corresponding to human PER2 Lys659-Ser674 [47], and CKI buffer (40 mM Tris, 10 mM MgCl2, 0.5 mM DTT, 0.1 mg/ml BSA, pH 7.5); for CKIα, 1 ng/µl CKIα (Invitrogen, PV3850), 50 µM CKI peptide substrate (Anaspec, 60547-1), and CKI buffer; for CDK7, 5 ng/µl CDK7 (Millipore, 14-476), 100 µM Cdk7/9 peptide substrate (Millipore, 12-526), and CKI buffer; for ERK2, 1.5 ng/µl ERK2 (Millipore, 14-550), 0.8 µg/µl MBP (Millipore, 13-104), and ERK buffer (50 mM Tris, 10 mM MgCl2, 0.5 mM DTT, 1 mM EGTA, pH 7.5). Five hundred nl of compound was added to the mixture (final 5% DMSO), and the reaction was started by adding ATP (final 5 µM). After incubation at 30°C for 3h, 10 µl of Kinase-Glo Luminescent Kinase Assay reagent (Promega) was added, and the luminescence was detected to determine remaining ATP amount. […] IC50 value was obtained by using Prism software (GraphPad Software).

[2] = test system: Bmal1-dLuc U2OS cells; experiment: U2OS cell-based circadian assay (Bmal1-dLuc luminescence rhythms); design: species or system human; details: Bmal1-dLuc U2OS cells; for Effect on circadian period: various concentrations; for Period effect compared with longdaysin: Figure S10
Procedure: (§2) The compound screen was done with the high-throughput circadian assay system as described previously. In brief, Bmal1-dLuc U2OS cells were suspended in the culture medium (DMEM supplemented with 10% fetal bovine serum, 0.29 mg/ml L-glutamine, 100 units/ml penicillin, and 100 µg/ml streptomycin) and plated onto 384-well white solid-bottom plates at 20 µl (2,000 cells) per well. After 2 d, 50 µl of the explant medium (DMEM supplemented with 2% B27, 10 mM HEPES, 0.38 mg/ml sodium bicarbonate, 0.29 mg/ml L-glutamine, 100 units/ml penicillin, 100 µg/ml streptomycin, 0.1 mg/ml gentamicin, and 1 mM luciferin, pH 7.2) was dispensed to each well, followed by the application of 500 nl of compounds (dissolved in DMSO; final 0.7% DMSO). The plate was covered with an optically clear film and set to luminescence monitoring system equipped with a CCD imager (ViewLux, Perkin Elmer). The luminescence was recorded every 2 h for 3–4 days. In follow-up studies, the luminescence was recorded every 100 min by using a microplate reader (Infinite M200, Tecan). The period parameter was obtained from the luminescence rhythm by curve fitting program CellulaRhythm or MultiCycle (Actimetrics), both of which gave similar results.

[3] = biological target: CKIα (Homo sapiens, UniProt P48729); experiment: In vitro kinase assay, CKIα; assay type: biochemical; design: purchased Invitrogen PV3850
Procedure: as §1

[4] = biological target: T2, ERK2 (Homo sapiens, UniProt P28482); experiment: In vitro kinase assay, ERK2; assay type: biochemical
T2 construct: purchased Millipore 14-550
Procedure: as §1

[5] = biological target: CKIδ (Homo sapiens, UniProt P48730); experiment: In vitro kinase assay, CKIδ; assay type: biochemical; design: purchased Millipore 14-520
Procedure: as §1

[6] = test system: cultured cells; design: method as in PMID 16983144, PMID 15767683, PMID 17876059; details: ref [14],[16]–[17]; cited from earlier work
[7] = test system: SCN explants; design: method as in PMID 18448638; details: ref [59]; cited from earlier work
[8] = test system: Bmal1-dLuc U2OS cells; experiment: Cytotoxicity in the U2OS circadian assay; assay type: cell-based, human
Procedure: as §2

Sequence of CKIδ (P48730 whole entry, species assumed): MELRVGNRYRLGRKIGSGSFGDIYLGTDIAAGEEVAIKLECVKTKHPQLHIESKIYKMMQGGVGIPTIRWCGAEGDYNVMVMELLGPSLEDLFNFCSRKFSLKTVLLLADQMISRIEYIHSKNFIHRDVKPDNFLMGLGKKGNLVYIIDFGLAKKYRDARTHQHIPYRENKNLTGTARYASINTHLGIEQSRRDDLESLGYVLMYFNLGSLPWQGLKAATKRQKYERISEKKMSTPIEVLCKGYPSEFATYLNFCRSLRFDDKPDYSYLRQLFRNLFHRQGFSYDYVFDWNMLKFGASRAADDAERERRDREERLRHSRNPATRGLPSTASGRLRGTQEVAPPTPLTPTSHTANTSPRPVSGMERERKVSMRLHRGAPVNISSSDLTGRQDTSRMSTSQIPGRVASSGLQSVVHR
T1 sequence (P50613 whole entry): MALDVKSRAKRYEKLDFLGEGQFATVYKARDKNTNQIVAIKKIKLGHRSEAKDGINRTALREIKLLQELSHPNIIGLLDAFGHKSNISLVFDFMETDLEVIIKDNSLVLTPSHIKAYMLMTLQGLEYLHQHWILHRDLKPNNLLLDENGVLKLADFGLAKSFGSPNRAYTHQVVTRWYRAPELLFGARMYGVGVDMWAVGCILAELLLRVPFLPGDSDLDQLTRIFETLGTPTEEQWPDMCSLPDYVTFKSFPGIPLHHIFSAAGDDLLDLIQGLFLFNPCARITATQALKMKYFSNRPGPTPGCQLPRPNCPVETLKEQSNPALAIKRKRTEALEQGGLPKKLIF
T1 sequence (P51946 whole entry partner): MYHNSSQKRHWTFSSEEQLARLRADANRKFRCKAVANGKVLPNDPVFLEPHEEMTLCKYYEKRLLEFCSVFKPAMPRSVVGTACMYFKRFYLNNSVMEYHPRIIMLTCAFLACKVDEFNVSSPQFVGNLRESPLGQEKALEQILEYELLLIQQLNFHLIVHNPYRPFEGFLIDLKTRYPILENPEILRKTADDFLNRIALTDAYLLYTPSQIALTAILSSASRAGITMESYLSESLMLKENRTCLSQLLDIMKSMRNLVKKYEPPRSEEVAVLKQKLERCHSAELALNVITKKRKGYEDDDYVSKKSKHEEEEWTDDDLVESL
T1 sequence (P51948 whole entry partner): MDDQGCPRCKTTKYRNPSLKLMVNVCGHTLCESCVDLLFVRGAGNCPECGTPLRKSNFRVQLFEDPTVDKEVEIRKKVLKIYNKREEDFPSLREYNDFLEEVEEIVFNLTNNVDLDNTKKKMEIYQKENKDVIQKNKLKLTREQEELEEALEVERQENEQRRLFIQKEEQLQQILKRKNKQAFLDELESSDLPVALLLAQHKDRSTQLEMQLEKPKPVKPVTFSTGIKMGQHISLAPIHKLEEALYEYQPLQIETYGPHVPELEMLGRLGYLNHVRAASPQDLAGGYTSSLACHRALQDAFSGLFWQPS
Sequence of CKIα (P48729 whole entry): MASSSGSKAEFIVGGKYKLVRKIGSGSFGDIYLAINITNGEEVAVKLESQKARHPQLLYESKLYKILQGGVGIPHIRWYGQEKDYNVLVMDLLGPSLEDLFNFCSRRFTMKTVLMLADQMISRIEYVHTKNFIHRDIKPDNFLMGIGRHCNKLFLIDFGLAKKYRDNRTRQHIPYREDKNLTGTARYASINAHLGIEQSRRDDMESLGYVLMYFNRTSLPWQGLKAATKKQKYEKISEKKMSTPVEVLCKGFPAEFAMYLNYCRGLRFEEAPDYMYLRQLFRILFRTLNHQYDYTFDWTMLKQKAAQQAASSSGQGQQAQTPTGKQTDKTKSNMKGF
T2 sequence (P28482 whole entry, species assumed): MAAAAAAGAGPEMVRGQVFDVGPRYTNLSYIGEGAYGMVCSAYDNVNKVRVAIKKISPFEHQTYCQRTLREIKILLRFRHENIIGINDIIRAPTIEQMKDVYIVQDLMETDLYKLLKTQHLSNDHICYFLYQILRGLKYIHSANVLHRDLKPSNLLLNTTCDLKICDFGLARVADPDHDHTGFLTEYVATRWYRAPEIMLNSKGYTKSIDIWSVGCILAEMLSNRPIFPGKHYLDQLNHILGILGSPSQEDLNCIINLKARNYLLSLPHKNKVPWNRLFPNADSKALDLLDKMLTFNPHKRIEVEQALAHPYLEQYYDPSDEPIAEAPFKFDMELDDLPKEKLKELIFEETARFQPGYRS

Compound: CC(C)n1cnc2c(NCc3ccccc3)ncnc21 [Compound 1, N-benzyl-9-isopropyl-9H-purin-6-amine]
- IC50 ([1]; ATP 5 µM, from Figure 2E): 29 µM
- Inhibition of CDK7 compared with longdaysin ([1]; in vitro kinase assay): inhibited CDK7 similarly to longdaysin
- Effect on circadian period [2]: strongly lengthened the period in a dose-dependent manner
- Concentration for period change, 5 h ([2]; from Figure 1B): 4.4 µM
- Concentration for period change, 10 h ([2]; from Figure 1B): 17 µM
- Concentration for period change, 15 h ([2]; from Figure 1B): 38 µM
- IC50 ([3]; ATP 5 µM, from Figure 2E): 23 µM
- Potency against CKIα relative to longdaysin (times less) ([3]; in vitro kinase assay): ~3 times
- IC50 ([4]; ATP 5 µM, from Figure 2E): 160 µM
- Potency against ERK2 relative to longdaysin (times less) ([4]; in vitro kinase assay): ~3 times
- IC50 ([5]; ATP 5 µM, from Figure 2E): 21 µM
- Potency against CKIδ relative to longdaysin (times less) ([5]; in vitro kinase assay): ~3 times

Compound: CC(=O)NCCCCCCNc1nc(NCc2cccc(C(F)(F)F)c2)c2ncn(C(C)C)c2n1 [Compound 2, N-(6-(9-isopropyl-6-(3-(trifluoromethyl)benzylamino)-9H-purin-2-ylamino)hexyl)acetamide]
- Effect on circadian period [2]: retained the period lengthening effect

Compound: NCCNS(=O)(=O)c1ccc(Cl)c2ccncc12 [CKI-7]
- Effect on period in cultured cells [6]: period lengthening

Compound: N#CC(=C(/N)Sc1ccccc1N)/C(C#N)=C(/N)Sc1ccccc1N [Compound U0126]
- Effect on circadian rhythms in SCN explants [7]: Attenuation of the circadian rhythms

Compound: COc1cc(OC)c(C=C2C(O)=Nc3ccccc32)c(OC)c1 [IC261, reference compound]
- Effect on period in cultured cells [6]: period lengthening
- Period effect compared with longdaysin [2]: smaller period effects

Compound: NC(=O)c1ccc(-c2nc(-c3ccc4c(c3)OCCO4)c(-c3ccccn3)[nH]2)cc1 [Compound D4476, reference compound]
- Concentration showing cytotoxicity [8]: 71 µM
- Effect on period in cultured cells [6]: period lengthening
- Period effect compared with longdaysin [2]: smaller period effects
